The text below walks through data of US6858591B2, “Antibiotic AA 896 analogs” (Wyeth Holdings Corporation, priority 2001, dated 2005).

Assay in all cases: In vitro MIC, broth dilution
Assay type in all cases: cell-based
(In general: Dilution methods test growth across graded concentrations, often in twofold steps.)

One test relates to E. cloacae GC 3783. The note with it: Enterobacter cloacae, GC3783.
A further test relates to K. pneumoniae GC 4534. The following applies: Klebsiella pneumoniae, GC4534.
Another test has as its system P. aeruginosa GC 2214. The note with it: Pseudomonas aeruginosa, GC2214.
The next test has as its system C. albicans GC 3066. The note with it: Candida albicans, GC3066.
A further test has as its system P. aeruginosa GC 4532. The following applies: Pseudomonas aeruginosa, GC4532.
Another test has as its system S. aureus GC 4536. The following applies: Staphylococcus aureus, GC4536. The protocol:
(§1) The minimum inhibitory concentration (MIC), the lowest concentration of the antibiotic which inhibits growth of the test organism, is determined by the broth dilution method using Muller-Hinton II […] (Baltimore Biological Laboratories) following the recommendations of National Committee for Clinical Laboratory Standards. [Reference for the Methods for dilution antimicrobial susceptibility tests for bacteria that grow aerobically: National Committee for Clinical Laboratory Standards, 1997. Approved standard M7-A National Committee for Clinical Laboratory Standards, Wayne, Pa.] An inoculum level of 5×10^5 CFU/ml, and a range of antibiotic concentrations (64-0.06 μg/ml) is used. The MIC is determined after the microtiter plates are incubated for 18 hours at 35° C. in an ambient air incubator. The test organisms comprise a spectrum of gram-positive bacteria including Staphylococcus sp., Streptococcus sp. and Enterococcus sp. These organisms include recent clinical isolates that are resistant to methicillin, penicillin and vancomycin.

The subject of another test is E. faecalis GC 4555. The following applies: Enterococcus faecalis, GC4555. The protocol:
as §1

For another test, the system named is E. faecalis GC 842. The following applies: Enterococcus faecalis, GC842. The protocol: as §1
The test system of another test is CNS GC 4538. The protocol:
as §1

The next test relates to CNS GC 4547. The protocol: as §1
In a further test the test system is CNS GC 4537. As for the experimental part:
as §1

The next test relates to S. aureus GC 1131. The note with it: Staphylococcus aureus, GC1131. The protocol:
as §1

The next test relates to S. aureus GC 2216. The following applies: Staphylococcus aureus, GC2216. The protocol:
as §1

The next test has as its system E. faecalis GC 2242. The note with it: Enterococcus faecalis, GC2242. As for the experimental part:
as §1

For a further test, the system named is E. coli GC 2203. The following applies: Escherichia coli, GC2203.
The test system of a further test is E. coli GC 3226. The note with it: Escherichia coli, GC3226.
A further test deals with E. coli GC 4559. The following applies: Escherichia coli, GC4559.
For a further test, the system named is S. marcescens GC 4077. The note with it: Serratia marcescens, GC4077.
Another test relates to M. morganii GC 4531. The following applies: Morganella morganii, GC4531.
The test system of the next test is E. coli GC 4560. The following applies: Escherichia coli, GC4560.

Values after ≈ are worked out from the molar mass of the structure shown. Read-outs that look alike come from different tables or passages of the source.

Take `COc1ccc(Cn2c(=O)ccn([C@@H]3OC([C@@H](O)[C@H](NCCCNC(=O)C(NC(=O)OCc4ccccc4)[C@@H](O)C(C)C)C(=O)OC(C)(C)C)[C@@H](O[Si](C)(C)C(C)(C)C)[C@H]3O[Si](C)(C)C(C)(C)C)c2=O)cc1` (stereo in doubt) [Example 3, tert-Butyl (5R,12S)-12-[(S)-[(3R,4R,5R)-3,4-bis{[tert-butyl(dimethyl)silyl]oxy}-5-(3-(4-methoxybenzyl)-2,4-dioxo-3,4-dihydro-1(2H)-pyrimidinyl)tetrahydro-2-furanyl](hydroxy)methyl]-5-[(1S)-1-hydroxy-2-methylpropyl]-3,6-dioxo-1-phenyl-2-oxa-4,7,11-triazatridecan-13-oate]: the minimum inhibitory concentration (MIC) was above 128 µg/mL with E. cloacae GC 3783; above 128 µg/mL in the test on K. pneumoniae GC 4534; 128 µg/mL (≈ 123 µM) against P. aeruginosa GC 2214; 128 µg/mL (≈ 123 µM) in the test with C. albicans GC 3066; 128 µg/mL (≈ 123 µM) in the test on P. aeruginosa GC 4532; above 128 µg/mL in the test with S. aureus GC 4536. Moreover, the minimum inhibitory concentration (MIC) in the test on E. faecalis GC 4555 is 128 µg/mL (≈ 123 µM); in the test on E. faecalis GC 842 it was above 128 µg/mL; in the test with CNS GC 4538, above 128 µg/mL; against CNS GC 4547 it was 128 µg/mL (≈ 123 µM); against CNS GC 4537, above 128 µg/mL; with S. aureus GC 1131, above 128 µg/mL. Moreover, the minimum inhibitory concentration (MIC) in the test with S. aureus GC 2216 was above 128 µg/mL; with E. faecalis GC 2242, 128 µg/mL (≈ 123 µM); against E. coli GC 2203 it was above 128 µg/mL; against E. coli GC 3226, above 128 µg/mL; against E. coli GC 4559 it was above 128 µg/mL; against S. marcescens GC 4077, above 128 µg/mL. Further, the MIC in the test with M. morganii GC 4531 and in the test with E. coli GC 4560 was 128 µg/mL (≈ 123 µM) throughout.

For `COc1ccc(Cn2c(=O)ccn([C@@H]3OC(C(O)[C@H](NCCCNC(=O)[C@@H](N)CC(=O)O)C(=O)OC(C)(C)C)[C@@H](O[Si](C)(C)C(C)(C)C)[C@H]3O[Si](C)(C)C(C)(C)C)c2=O)cc1` (stereo in doubt) [Example 17, (3S)-3-Amino-4-[(3-{[(1S,2S)-2-[(3R,4R,5R)-3,4-bis{[tert-butyl(dimethyl)silyl]oxy}-5-(3-(4-methoxybenzyl)-2,4-dioxo-3,4-dihydro-1(2H)-pyrimidinyl)tetrahydro-2-furanyl]-1-(tert-butoxycarbonyl)-2-hydroxyethyl]amino}propyl)amino]-4-oxobutanoic acid], the MIC was above 128 µg/mL in the test with E. cloacae GC 3783 (E. cloacae GC 3783, read-out: MIC); above 128 µg/mL in the test with K. pneumoniae GC 4534 (K. pneumoniae GC 4534, read-out: MIC); above 128 µg/mL with P. aeruginosa GC 2214 (P. aeruginosa GC 2214, read-out: MIC); above 128 µg/mL in the test with C. albicans GC 3066 (C. albicans GC 3066, read-out: MIC); above 128 µg/mL with P. aeruginosa GC 4532 (P. aeruginosa GC 4532, read-out: MIC); 128 µg/mL (≈ 143 µM) with S. aureus GC 4536 (S. aureus GC 4536, read-out: MIC). Moreover, the minimal inhibitory concentration (MIC) in the test with E. faecalis GC 4555 (E. faecalis GC 4555, read-out: MIC) is 16 µg/mL (≈ 17.9 µM); in the test with E. faecalis GC 842 (E. faecalis GC 842, read-out: MIC) it was 32 µg/mL (≈ 35.8 µM); in the test with CNS GC 4538 (CNS GC 4538, read-out: MIC), 64 µg/mL (≈ 71.6 µM); with CNS GC 4547 (CNS GC 4547, read-out: MIC), above 128 µg/mL; in the test with CNS GC 4537 (CNS GC 4537, read-out: MIC), above 128 µg/mL; with S. aureus GC 1131 (S. aureus GC 1131, read-out: MIC) it was 128 µg/mL (≈ 143 µM). The MIC with S. aureus GC 2216 (S. aureus GC 2216, read-out: MIC) is 32 µg/mL (≈ 35.8 µM); in the test with E. faecalis GC 2242 (E. faecalis GC 2242, read-out: MIC) it was 4 µg/mL (≈ 4.47 µM); in the test on E. coli GC 2203 (E. coli GC 2203, read-out: MIC), above 128 µg/mL; with E. coli GC 3226 (E. coli GC 3226, read-out: MIC) it was above 128 µg/mL; in the test on E. coli GC 4559 (E. coli GC 4559, read-out: MIC) it was above 128 µg/mL; in the test with S. marcescens GC 4077 (S. marcescens GC 4077, read-out: MIC), above 128 µg/mL. The MIC in the test on M. morganii GC 4531 (M. morganii GC 4531, read-out: MIC) was above 128 µg/mL; in the test with E. coli GC 4560 (E. coli GC 4560, read-out: MIC), above 128 µg/mL.

What is called MIC is the lowest concentration found to suppress growth.
